The text below walks through data of patent US10654866B2, “Selective estrogen receptor degraders” (Eli Lilly and Company, priority 2018, dated 2020).

In one assay the target is ERα (Homo sapiens (Human), UniProt P03372). Kind of assay: PRα induction assay in MCF7 cells. It is filed as cell-based. The note with it: MCF7 breast cancer cells. How it is done:
The purpose of the following PRα induction assay is to determine whether a test compound has agonistic activity against ERα receptor (an agonist would be expected to activate the receptor).
Culture MCF7 (purchased from ATCC HTB-22) in DMEM media supplemented with 10% FBS, 0.01 mg/mL human insulin 1 and 1% penicillin/streptomycin antibiotics and plate the cells (prior to becoming 70% confluent) in 384-well flat-bottom plates at a density of 4,000 cells per well in 20 μL volume in DMEM phenol red free media containing 10% FBS (charcoal stripped). Incubate the cells overnight in a cell culture incubator (5% CO2, 95% relative humidity at 37° C.) and allow the cells to attach to the plate. The following day, dose the cells with test compound. Use an Echo 555 acoustic dispenser to prepare compound serial dilutions (1:3) in a range from 6 μM to 0.0003 μM. Dose the cells with the addition of the test compound (5 μL) from the serial dilution plate to the cell plate producing a final DMSO concentration of 0.2% with a final concentration of the test compound dose range between 2 and 0.0001 μM. For the maximum point use media containing 0.2% of DMSO and for the minimum point, use fulvestrant diluted at 2 μM final concentrations in the growth media containing 0.2% DMSO. After dosing with the test compound, incubate the cell plates at 37° C. and 5% CO2 for 24 hours. Fix the cells by adding 14% para-formaldehyde (10 μL) for 30 minutes at room temperature. Wash cells once with PBS (20 μL) and incubate with PBS (20 μL) containing 0.5% (v/v) TWEEN® 20 for 1 hour. Wash cells twice with PBS (20 μL) containing 0.05% TWEEN® 20 and block with 3% BSA in PBS containing 0.05% TWEEN® 20 and 0.1% TRITON™ X-100 (20 μL/well) for 1 hour at room temperature. […]
The following day, wash cells with PBS 0.05% TWEEN® 20 (2×20 μL) and incubate with secondary antibody (20 μL/well) (1:1000 dilution, Goat anti-rabbit IgM ALEXA FLUOR™ 488) in PBS 1% BSA for 105 minutes at room temperature. […] Scan plates with ACUMEN EXPLORER™ [Laser-scanning fluorescence microplate cytometer manufactured by TTP LABTECH LTD] to measure PRα. […]

The test system of the next assay is MCF7 ESR1 wild type. Kind of assay: Cell proliferation assay in MCF7. It counts as cell-based, human. As to conditions: seven days, read-out: Relative IC50 (μM) MCF7 ESR1 wild type. How it is done: (§1) Seed MCF7 (purchased from ATCC HTB-22) cells at a density of 2,000 cells per well in DMEM phenol red free media 10% FBS (20 μL volume) (charcoal stripped) into a clear bottom 384-well cell culture plate. Plate MCF7-ESRY537N-682 (generated by CRISPR/Cas9 gene editing of ESr1 gene in MCF7 cells, clone #682) in DMEM media supplemented with 10% FBS, and 1% penicillin/streptomycin antibiotics at a density of 1000 cells per well. Incubate the plates at 37° C. and 5% CO2. The following day dose the cells with the test compound. Use an Echo 555 acoustic dispenser to prepare test compound serial dilutions (1:3) in a range from 60 μM to 0.003 μM. Dose the cells with the addition of 5 μL from the serial dilution plate to the cell plate, producing a final DMSO concentration of 0.2% with a final test compound concentration dose range between 20 and 0.001 μM. For the maximum point use media containing 0.2% of DMSO and for the minimum point use fulvestrant diluted at 2 μM final concentrations in the growth media containing 0.2% DMSO. After dosing with the test compound, incubate the cell plates at 37° C. and 5% CO2. Seven days after test compound addition, remove the plates from the incubator and add cold EtOH 96% (65 μL) to each well. […] Seal the plates and incubate 1 hour at room temperature on the bench (preserved from light). Scan the plates with ACUMEN EXPLORER™ [Laser-scanning fluorescence microplate cytometer manufactured by TTP LABTECH LTD].

Assay [1] deals with MCF7 ESR1 Y537N mutant cells. Kind of assay: Cell proliferation assay in MCF7-ESR1 Y537N-682. It counts as cell-based, human. The note with it: seven days, read-out: Relative IC50 (μM) MCF7 ESR1 Y537N mutant cells. How it is done:
as §1

In assay [2] the test system is MCF7 ER-positive breast cancer model. As to the kind of experiment: In vivo combination studies in MCF7 ER-positive breast cancer xenograft model. Also on record: species or system mice. As to conditions: Example 10 15 mpk; for Difference (Treatment 1 − Treatment 2): Treatment 1 = Vehicle, log10 tumor volume, QD × 42, PO. The text has this:
Otherwise, the statistical conclusion is additive.

Like-named read-outs stand apart in the source and are kept apart here.

Sequence of ERα (P03372 whole entry): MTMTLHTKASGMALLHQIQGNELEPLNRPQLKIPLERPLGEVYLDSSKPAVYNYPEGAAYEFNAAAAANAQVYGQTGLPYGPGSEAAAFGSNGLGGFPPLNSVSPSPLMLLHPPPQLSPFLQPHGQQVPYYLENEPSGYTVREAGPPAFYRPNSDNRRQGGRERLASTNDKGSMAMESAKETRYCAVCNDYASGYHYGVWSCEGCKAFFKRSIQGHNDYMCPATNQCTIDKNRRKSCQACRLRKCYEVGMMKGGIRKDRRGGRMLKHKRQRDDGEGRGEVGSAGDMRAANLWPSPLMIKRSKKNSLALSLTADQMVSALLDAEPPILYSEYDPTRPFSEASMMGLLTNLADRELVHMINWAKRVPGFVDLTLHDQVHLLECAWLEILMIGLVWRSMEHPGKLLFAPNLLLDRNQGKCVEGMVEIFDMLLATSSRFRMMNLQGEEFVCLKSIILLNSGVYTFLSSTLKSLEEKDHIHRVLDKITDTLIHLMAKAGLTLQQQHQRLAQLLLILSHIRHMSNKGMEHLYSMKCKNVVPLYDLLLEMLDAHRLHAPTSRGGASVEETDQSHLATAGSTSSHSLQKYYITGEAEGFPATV

On to `Oc1ccc2c3c(cnc2c1)-c1ccc(C(F)(F)F)cc1OC3c1ccc(OCCN2CC(CF)C2)cc1` (racemic) [Example 1, 5-(4-{2-[3-(Fluoromethyl)azetidin-1-yl]ethoxy}phenyl)-8-(trifluoromethyl)-5H-[1]benzopyrano[4,3-c]quinolin-2-ol], for which, on ERα, the agonistic activity result is on record as “no significant agonistic activity”. Also, the IC50 is 0.00768 ± 0.0126 µM in the assay on MCF7 ESR1 wild type (Homo sapiens, MCF7, […]) and 0.0321 ± 0.0068 µM in assay [1] (Homo sapiens, MCF7, […]).
Take `Oc1ccc2c3c(cnc2c1)-c1ccc(C(F)(F)F)cc1OC3c1ccc(OCCN2CC(CF)C2)cc1` (single isomer, unassigned) [Example 1A, 5-(4-{2-[3-(Fluoromethyl)azetidin-1-yl]ethoxy}phenyl)-8-(trifluoromethyl)-5H-[1]benzopyrano[4,3-c]quinolin-2-ol]: the agonistic activity result at ERα was “no significant agonistic activity”. Also, the 50% inhibitory concentration (IC50) in assay [1] came to 1.86 ± 1.03 µM.
As to `Cc1ccc(S(=O)(=O)O)cc1.Oc1ccc2c3c(cnc2c1)-c1ccc(C(F)(F)F)cc1OC3c1ccc(OCCN2CC(CF)C2)cc1` (single isomer, unassigned; isomer 2) [Example 10, 5-(4-{2-[3-(Fluoromethyl)azetidin-1-yl]ethoxy}phenyl)-8-(trifluoromethyl)-5H-[1]benzopyrano[4,3-c]quinolin-2-ol, 4-methylbenzenesulfonic acid, Isomer 2], the IC50 in the assay on MCF7 ESR1 wild type was 0.00438 µM; in assay [1], 0.0106 µM. Further, the “Delta T/C % or % Regression” value in assay [2] (Abemaciclib 50 mpk, QD × 42, PO (Table 20)) is recorded as −51%; in assay [2] (Everolimus 5 mpk, QD × 42, PO (Table 24)), −51%; in assay [2] (alpelisib 15 mpk (d1-d7), 10 mpk (d8-42), QD × 42, PO (Table 22)), −51%. The “Difference (Treatment 1 − Treatment 2)” value in assay [2] (Abemaciclib 50 mpk) stood at 0.659; in assay [2] (Everolimus 5 mpk), 0.445; in assay [2] (alpelisib 15 mpk (d1-d7), 10 mpk (d8-42)) it was 0.241.

Broadly, the IC50 is the midpoint of a concentration-inhibition curve.
